The source of these data is patent publication US10189772B2, “Mixtures of chelating agents including an L-enantiomer-rich MGDA, and process for making such mixtures” (BASF SE, priority 2015, dated 2019).

For data set [1] the following is noted: ambient temperature, no visible precipitation after 2 weeks. On the procedure: In each case, the solubility was calculated to refer to pure MGDA, without hydrate water.
In addition, the concentrations of the saturated solutions at ambient temperature in dependence of the ee value of MGDA and depending on the concentration of (B) were determined.

For data set [2] the following is noted: aqueous solution, room temperature; cited from earlier work.

Counter-ions that a name gives are not always drawn. Like-named read-outs stand apart in the source and are kept apart here.

As to `CC(C(=O)O)N(CC(=O)O)CC(=O)O` (centres unmarked) [MGDA-Na3, methyl glycine diacetic acid], the “concentration of saturated solutions” value in data set [1] (ee value of MGDA-Na3 11 %, addition of VDA-Na3 5.5 weight-%) turned out to be 49 weight-%; in data set [1] (ee value of MGDA-Na3 39 %, addition of VDA-Na3 2.8 weight-%), 48 weight-%; in data set [1] (ee value of MGDA-Na3 39 %, addition of VDA-Na3 5.5 weight-%), 47 weight-%; in data set [1] (ee value of MGDA-Na3 39 %, addition of VDA-Na3 8.3 weight-%), 43 weight-%; in data set [1] (ee value of MGDA-Na3 82 %, addition of VDA-Na3 2.8 weight-%), 58 weight-%; in data set [1] (ee value of MGDA-Na3 82 %, addition of VDA-Na3 8.3 weight-%), 53 weight-%. For the same compound, the “concentration of saturated solutions” value in data set [1] (ee value of MGDA-Na3 82 %, addition of VDA-Na3 zero weight-%) is listed as 46 weight-%; in data set [1] (ee value of MGDA-Na3 96 %, addition of VDA-Na3 5.5 weight-%), 57 weight-%; in data set [1] (ee value of MGDA-Na3 96 %, addition of VDA-Na3 zero weight-%) it was 49 weight-%; in data set [1] (ee value of MGDA-Na3 zero %, addition of VDA-Na3 zero weight-%), at most 40 weight-%.
As for `CC(C(=O)O)N(CC(=O)O)CC(=O)O` (racemic) [racemic MGDA trisodium salt, methyl glycine diacetic acid], the “concentration of solutions that can be made and stored” value in data set [2] was “about 40 % by weight”.
